Reference: publication PMC7180638, “Synthesis of Pyrrolidine Monocyclic Analogues of Pochonicine and Its Stereoisomers: Pursuit of Simplified Structures and Potent β-N-Acetylhexosaminidase Inhibition” (Molecules, 2020)
Where a name gives a salt, the structure may show the parent alone. Read-outs that look alike come from different tables or passages of the source.

Columns and labels:
Format in all cases: biochemical
[1] = molecular target: α-Glucosidase (Yeast) (Saccharomyces cerevisiae, UniProt P53341); test: α-Glucosidase (yeast) inhibition
Chain of α-Glucosidase (Yeast) (P53341 whole entry): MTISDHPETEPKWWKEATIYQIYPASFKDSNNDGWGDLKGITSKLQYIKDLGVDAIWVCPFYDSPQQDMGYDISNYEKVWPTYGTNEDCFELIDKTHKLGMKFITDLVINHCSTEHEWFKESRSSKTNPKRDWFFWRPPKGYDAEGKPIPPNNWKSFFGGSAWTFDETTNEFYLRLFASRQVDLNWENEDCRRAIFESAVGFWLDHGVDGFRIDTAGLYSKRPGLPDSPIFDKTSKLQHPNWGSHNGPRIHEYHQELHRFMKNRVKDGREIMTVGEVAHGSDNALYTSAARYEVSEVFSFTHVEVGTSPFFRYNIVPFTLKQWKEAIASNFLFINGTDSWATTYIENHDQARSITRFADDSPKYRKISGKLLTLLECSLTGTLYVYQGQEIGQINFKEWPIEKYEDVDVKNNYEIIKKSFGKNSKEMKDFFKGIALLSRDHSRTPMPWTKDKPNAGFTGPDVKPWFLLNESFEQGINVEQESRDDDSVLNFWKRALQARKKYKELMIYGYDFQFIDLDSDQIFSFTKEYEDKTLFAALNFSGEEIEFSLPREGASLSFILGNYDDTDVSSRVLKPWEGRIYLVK
Description: (§1) With rat intestinal maltase as an exception, other enzymes were purchased from Sigma-Aldrich Chemical Co. (St. Louis, MO, USA). Brush border membranes prepared from rat small intestine according to the method of Kessler et al. were assayed at pH 6.8 for rat intestinal maltase using maltose. The released D-glucose was determined colorimetrically using the Glucose CII-test Wako (Wako Pure Chemical Ind.; Osaka, Japan). Other glycosidase activities were determined using an appropriate p-nitrophenyl glycoside as substrate in a buffer solution at the optimal pH value of each enzyme. The reaction was stopped by adding 400 mM Na2CO3. The released p-nitrophenol was measured spectrometrically at 400 nm.

[2] = molecular target: β-N-Acetylhexosaminidase (Jack bean); test: β-N-Acetylhexosaminidase (Jack bean) inhibition; details: β-N-Acetylhexosaminidase (β-GlcNAcase), read-out: IC50
Description: as §1

[3] = molecular target: T1, α-Mannosidase (Jack bean) (Canavalia ensiformis, UniProt C0HJB3); test: α-Mannosidase (Jack bean) inhibition
T1 construct: purchased Sigma-Aldrich Chemical Co
T1 sequence (C0HJB3 1-981): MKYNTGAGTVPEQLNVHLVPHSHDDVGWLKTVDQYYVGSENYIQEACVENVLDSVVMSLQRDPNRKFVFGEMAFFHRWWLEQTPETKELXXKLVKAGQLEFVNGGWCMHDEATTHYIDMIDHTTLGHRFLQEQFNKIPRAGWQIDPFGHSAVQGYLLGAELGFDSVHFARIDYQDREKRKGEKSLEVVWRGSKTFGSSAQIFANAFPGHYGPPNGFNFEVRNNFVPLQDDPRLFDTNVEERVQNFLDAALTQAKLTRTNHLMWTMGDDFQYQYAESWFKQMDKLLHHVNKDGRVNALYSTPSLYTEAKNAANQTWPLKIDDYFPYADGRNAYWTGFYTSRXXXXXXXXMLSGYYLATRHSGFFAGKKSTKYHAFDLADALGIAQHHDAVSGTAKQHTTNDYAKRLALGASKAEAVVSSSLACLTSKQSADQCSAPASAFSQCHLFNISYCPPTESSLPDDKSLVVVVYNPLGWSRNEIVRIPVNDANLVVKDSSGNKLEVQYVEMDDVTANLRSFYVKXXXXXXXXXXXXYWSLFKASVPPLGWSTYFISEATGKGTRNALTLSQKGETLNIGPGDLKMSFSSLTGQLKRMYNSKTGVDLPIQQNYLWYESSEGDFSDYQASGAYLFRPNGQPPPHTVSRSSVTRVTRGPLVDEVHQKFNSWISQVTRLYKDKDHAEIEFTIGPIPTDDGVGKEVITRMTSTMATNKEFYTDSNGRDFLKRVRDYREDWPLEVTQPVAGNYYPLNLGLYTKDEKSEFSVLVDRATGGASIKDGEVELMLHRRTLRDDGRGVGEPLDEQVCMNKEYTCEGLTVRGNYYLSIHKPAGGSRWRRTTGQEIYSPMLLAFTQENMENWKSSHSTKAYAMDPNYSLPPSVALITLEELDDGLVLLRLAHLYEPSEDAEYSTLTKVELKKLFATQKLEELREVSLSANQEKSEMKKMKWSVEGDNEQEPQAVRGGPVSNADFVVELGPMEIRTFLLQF
Description: as §1

[4] = molecular target: β-N-Acetylgalactosaminidase (HL60); test: β-N-Acetylgalactosaminidase (HL60) inhibition
Description: as §1

[5] = molecular target: β-N-Acetylhexosaminidase (HL60); test: β-N-Acetylhexosaminidase (HL60) inhibition; details: for IC50: β-N-Acetylhexosaminidase (β-GlcNAcase); for Inhibition % at 1000 μM: β-N-Acetylhexosaminidase
Description: as §1

[6] = molecular target: T2, β-Glucuronidase (E. coli) (Escherichia coli, UniProt P05804); test: β-Glucuronidase (E. coli) inhibition
T2 construct: purchased Sigma-Aldrich Chemical Co
T2 sequence (P05804 whole entry): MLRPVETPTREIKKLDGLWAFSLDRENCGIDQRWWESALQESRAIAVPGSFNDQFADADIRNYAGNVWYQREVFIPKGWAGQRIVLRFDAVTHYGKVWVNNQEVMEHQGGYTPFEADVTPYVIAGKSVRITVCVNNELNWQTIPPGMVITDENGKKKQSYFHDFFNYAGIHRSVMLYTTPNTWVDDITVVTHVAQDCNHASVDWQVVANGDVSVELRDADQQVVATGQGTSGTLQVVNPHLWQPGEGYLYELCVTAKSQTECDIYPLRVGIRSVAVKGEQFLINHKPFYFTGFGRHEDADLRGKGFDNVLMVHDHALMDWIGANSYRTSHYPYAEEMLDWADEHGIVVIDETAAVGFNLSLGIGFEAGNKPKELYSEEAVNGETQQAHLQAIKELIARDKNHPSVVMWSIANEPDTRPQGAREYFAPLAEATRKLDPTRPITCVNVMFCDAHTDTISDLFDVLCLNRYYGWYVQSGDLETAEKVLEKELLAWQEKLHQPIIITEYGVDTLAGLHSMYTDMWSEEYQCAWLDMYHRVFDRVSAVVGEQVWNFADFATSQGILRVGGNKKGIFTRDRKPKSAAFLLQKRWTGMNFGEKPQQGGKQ
Description: as §1

[7] = molecular target: β-N-Acetylhexosaminidase (Bovine liver); test: β-N-Acetylhexosaminidase (bovine liver) inhibition; details: for IC50: β-N-Acetylhexosaminidase (β-GlcNAcase)
Description: as §1

[8] = molecular target: T3, α,α-Trehalase (Porcine kidney) (Sus scrofa, UniProt I3LIR5); test: α,α-Trehalase (porcine kidney) inhibition
T3 construct: purchased Sigma-Aldrich Chemical Co; host or cells: porcine kidney
T3 sequence (I3LIR5 24-583): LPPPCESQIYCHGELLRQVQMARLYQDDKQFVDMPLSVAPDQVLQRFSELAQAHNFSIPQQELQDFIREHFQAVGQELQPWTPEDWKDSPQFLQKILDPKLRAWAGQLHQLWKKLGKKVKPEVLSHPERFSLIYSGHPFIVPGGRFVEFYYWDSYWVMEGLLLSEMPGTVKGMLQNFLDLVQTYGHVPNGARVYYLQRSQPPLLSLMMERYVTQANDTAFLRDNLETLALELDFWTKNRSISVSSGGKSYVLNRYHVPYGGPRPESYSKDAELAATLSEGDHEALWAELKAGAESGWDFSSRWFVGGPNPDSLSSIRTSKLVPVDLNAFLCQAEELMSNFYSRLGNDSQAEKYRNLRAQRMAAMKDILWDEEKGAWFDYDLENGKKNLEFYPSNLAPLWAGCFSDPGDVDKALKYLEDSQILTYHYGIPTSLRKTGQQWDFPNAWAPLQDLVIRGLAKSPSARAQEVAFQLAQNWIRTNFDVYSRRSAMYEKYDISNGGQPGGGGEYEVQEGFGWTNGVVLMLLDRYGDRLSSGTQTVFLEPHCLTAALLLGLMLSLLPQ
Description: as §1

[9] = molecular target: T4, Amyloglucosidase (A. niger) (Aspergillus niger, UniProt P69328); test: Amyloglucosidase (A. niger) inhibition
T4 construct: purchased Sigma-Aldrich Chemical Co
T4 sequence (P69328 25-640): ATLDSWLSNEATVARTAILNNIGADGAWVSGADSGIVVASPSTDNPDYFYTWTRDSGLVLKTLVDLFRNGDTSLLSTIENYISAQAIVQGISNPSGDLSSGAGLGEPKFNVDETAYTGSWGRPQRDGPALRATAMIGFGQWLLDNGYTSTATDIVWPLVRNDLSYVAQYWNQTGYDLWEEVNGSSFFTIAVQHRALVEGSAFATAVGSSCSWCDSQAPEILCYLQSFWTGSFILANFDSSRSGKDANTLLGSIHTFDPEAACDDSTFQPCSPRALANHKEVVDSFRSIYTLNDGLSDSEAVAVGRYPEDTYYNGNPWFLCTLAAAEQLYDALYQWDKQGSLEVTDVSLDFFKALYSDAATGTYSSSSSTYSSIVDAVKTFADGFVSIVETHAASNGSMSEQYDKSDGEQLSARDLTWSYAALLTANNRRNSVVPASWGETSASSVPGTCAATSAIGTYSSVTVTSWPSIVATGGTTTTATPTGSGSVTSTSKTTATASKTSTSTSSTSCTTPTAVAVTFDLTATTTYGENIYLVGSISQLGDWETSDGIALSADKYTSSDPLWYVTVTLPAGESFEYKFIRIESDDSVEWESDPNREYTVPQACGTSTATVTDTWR
Description: as §1

[10] = molecular target: T5, α-Glucosidase (Rice) (Oryza sativa subsp. japonica, UniProt Q653V7); test: α-Glucosidase (rice) inhibition
T5 construct: purchased Sigma-Aldrich Chemical Co
T5 sequence (Q653V7 34-885): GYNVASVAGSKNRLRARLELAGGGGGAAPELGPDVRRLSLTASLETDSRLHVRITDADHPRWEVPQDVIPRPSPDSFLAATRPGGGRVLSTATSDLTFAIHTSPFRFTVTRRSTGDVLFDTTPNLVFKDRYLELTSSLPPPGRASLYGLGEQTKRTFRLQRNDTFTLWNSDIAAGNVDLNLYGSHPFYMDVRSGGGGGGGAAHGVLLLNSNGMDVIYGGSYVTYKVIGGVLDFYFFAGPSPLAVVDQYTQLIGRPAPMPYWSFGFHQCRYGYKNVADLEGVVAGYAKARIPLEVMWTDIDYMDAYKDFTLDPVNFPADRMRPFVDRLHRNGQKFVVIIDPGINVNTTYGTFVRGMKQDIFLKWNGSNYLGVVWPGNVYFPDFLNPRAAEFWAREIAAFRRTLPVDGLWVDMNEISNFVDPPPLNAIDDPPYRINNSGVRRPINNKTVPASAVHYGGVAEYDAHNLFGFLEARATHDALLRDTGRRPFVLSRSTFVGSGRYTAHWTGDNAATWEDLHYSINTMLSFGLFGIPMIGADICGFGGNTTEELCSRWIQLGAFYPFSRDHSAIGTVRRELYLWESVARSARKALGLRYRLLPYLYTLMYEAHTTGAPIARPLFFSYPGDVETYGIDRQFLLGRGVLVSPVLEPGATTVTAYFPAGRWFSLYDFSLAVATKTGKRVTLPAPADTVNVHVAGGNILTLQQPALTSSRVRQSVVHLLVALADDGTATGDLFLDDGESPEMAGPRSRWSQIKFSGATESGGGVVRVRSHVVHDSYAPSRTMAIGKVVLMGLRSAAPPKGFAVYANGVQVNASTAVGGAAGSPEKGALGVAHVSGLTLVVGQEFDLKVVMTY
Description: as §1

[11] = molecular target: T6, β-Galactosidase (Bovine liver) (Bos taurus, UniProt F1MNT6); test: β-Galactosidase (bovine liver) inhibition
T6 sequence (F1MNT6 1-469): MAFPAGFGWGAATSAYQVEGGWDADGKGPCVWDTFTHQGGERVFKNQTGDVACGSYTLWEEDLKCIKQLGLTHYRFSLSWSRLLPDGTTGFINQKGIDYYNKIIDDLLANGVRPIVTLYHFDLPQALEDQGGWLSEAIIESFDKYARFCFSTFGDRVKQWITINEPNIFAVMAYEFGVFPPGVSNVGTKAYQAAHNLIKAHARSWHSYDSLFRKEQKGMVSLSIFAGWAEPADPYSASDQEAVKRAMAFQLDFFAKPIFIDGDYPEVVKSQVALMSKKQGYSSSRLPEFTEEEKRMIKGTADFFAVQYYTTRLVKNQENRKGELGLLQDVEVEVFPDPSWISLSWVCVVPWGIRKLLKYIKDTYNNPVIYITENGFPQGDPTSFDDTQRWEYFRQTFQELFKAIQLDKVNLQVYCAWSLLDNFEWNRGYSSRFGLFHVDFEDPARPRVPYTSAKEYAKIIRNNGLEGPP
Description: as §1

[12] = 1000 μM, read-out: Inhibition % at 1000 μM
[13] = read-out: Inhibition % at 1000 μM
[14] = α-Glucosidase, Yeast, read-out: IC50

Structure (SMILES) | IC50 [2] [µM] | inhibition at 1000 µM [3, 12] [%] | inhibition at 1000 µM ([3]; read-out: IC50) [%] | inhibition at 1000 µM [6, 12] [%] | inhibition at 1000 µM ([6]; read-out: IC50) [%] | IC50 ([7]; read-out: IC50) [µM] | inhibition at 1000 µM [8, 12] [%] | inhibition at 1000 µM ([8]; read-out: IC50) [%] | inhibition at 1000 µM [9, 12] [%] | inhibition at 1000 µM ([9]; read-out: IC50) [%] | IC50 [10] [µM] | inhibition at 1000 µM [1, 13] [%] | inhibition at 1000 µM [1, 14] [%] | IC50 [4] | Inhibition % at 1000 μM [4] [%] | IC50 [5] | Inhibition % at 1000 μM [5] [%] | inhibition at 1000 µM [11, 12] [%] | inhibition at 1000 µM ([11]; read-out: IC50) [%] | also measured
CC(=O)NC[C@H]1N[C@H](CO)[C@@H](O)[C@@H]1O [4·HCl, 1-N-acetylamino-2,5-imino-1,2,5-trideoxy-D-mannitol hydrochloride] | 0.21 | 0 | < 50 | 0.6 | < 50 | 4.7 | 20.3 | < 50 | 40.6 | < 50 | 1000 | – | – | – | – | – | – | – | – | IC50 ([1]; α-Glucosidase, Yeast): 450 µM; IC50 ([4]; read-out: IC50): 9.5 µM; IC50 ([5]; read-out: IC50): 34 µM
CC(=O)NC[C@@H]1N[C@@H](CO)[C@H](O)[C@H]1O [A-10, 1-N-acetylamino-2,5-imino-1,2,5-trideoxy-L-mannitol hydrochloride] | 202 | 0 | < 50 | 0 | < 50 | 943 | 4.3 | < 50 | 5.5 | < 50 | 568 | 0.5 | < 50 | NI (No Inhibition (less than 50% at 1000 μM)) | 13.0 | NI (No Inhibition (less than 50% at 1000 μM)) | 12.7 | 1.6 | < 50 | –
CC(=O)NC[C@@H]1N[C@@H](CO)[C@@H](O)[C@H]1O [C-10, 1-N-acetylamino-2,5-imino-1,2,5-trideoxy-L-altritol hydrochloride] | 129 | 0.4 | < 50 | 0.3 | < 50 | – | 0 | < 50 | 1.9 | < 50 | – | 0 | < 50 | NI (No Inhibition (less than 50% at 1000 μM)) | 1.4 | NI (No Inhibition (less than 50% at 1000 μM)) | 3.9 | 1.3 | < 50 | IC50 [7]: NI (No Inhibition (less than 50% at 1000 μM)); Inhibition % at 1000 μM ([7]; β-N-Acetylhexosaminidase, 1000 μM): 36.3%; inhibition at 1000 µM [10, 12]: 18.2%; inhibition at 1000 µM ([10]; read-out: IC50): < 50%
